Assay results published in paper PMC11125126, “Synthesis, Characterisation, and In Vitro Evaluation of Biocompatibility, Antibacterial and Antitumor Activity of Imidazolium Ionic Liquids” (Pharmaceutics, 2024).
Where two headings read alike, the source gives them in different places.

Columns and labels:
Pseudomonas fluorescens = assay: MIC/MBC by broth dilution, pure ILs; assay type: cell-based; settings: 24 h
Excerpt: (§1) Within the Di3A (Dipartimento di Agricoltura, Alimentazione e Ambiente, University of Catania, Italy) microbial collection, two Gram-negative strains (Escherichia coli and Pseudomonas fluorescens) and one Gram-positive strain (Listeria monocytogenes) were studied in order to define the potential efficacy of ionic liquids in relation to the different structure of the bacterial cell wall.
(§2) For the pure ILs, the minimal inhibitory concentration (MIC) and minimal bactericidal concentration (MBC) were determined in Nutrient Broth (NB, Oxoid, Basingstoke, UK) medium by broth dilution method, according to the Clinical and Laboratory Standards Institute (CLSI).
All the bacterial strains were individually grown for 24 h at 35 or 27 °C for P. fluorescens, with shaking. After the incubation period, the cells were collected by centrifugation and re-suspended in sterile NB to obtain a stock culture of 10^9 CFU/mL. […]
(§3) Tubes were incubated at 35 or 27 °C in an orbital shaker and evaluated for the viable count of E. coli, P. fluorescens, and L. monocytogenes after 24 h by spread-plating 100 µL of each suspension on Nutrient Agar (NA, Oxoid, Basingstoke, UK) incubated for 24–48 h at 35 or 27 °C.
(§4) In this study, MIC and MBC are expressed in both µg/mL and µM to make the comparison with the literature data easy. Each experiment was performed in triplicate.

Escherichia coli = assay: MIC/MBC by broth dilution, pure ILs; assay type: cell-based; settings: 24 h
Excerpt: as §1, §2
(§5) All the bacterial strains were individually grown for 24 h at 35 or 27 °C for P. fluorescens, with shaking. After the incubation period, the cells were collected by centrifugation and re-suspended in sterile NB to obtain a stock culture of 10^9 CFU/mL.
(§6) Tubes containing 5 mL of NB with decreasing concentrations of ILs (1000, 500, 250, 125, 50, 25, 12.5, 5 and 0 µg/mL) were inoculated with each bacterial stock culture at a final concentration of 10^6 CFU/mL.
as §3, §4

Listeria monocytogenes = assay: MIC/MBC by broth dilution, pure ILs; assay type: cell-based; settings: 24 h
Excerpt: as §1, §2, §5, §6, §3, §4

MCF7 cancer cells = assay: Direct cytotoxicity test of IL powders, Alamar blue assay; assay type: cell-based, human; settings: 24 h of incubation
Method: (§7) Cytotoxicity studies on IL powders were carried out using human dermal fibroblast (HDF) cells (Sigma-Aldrich) and a human breast cancer cell line (MCF7). In addition, ILs loaded in PVC polymer substrates were tested for their cytocompatibility and adhesion properties on the HDF. HDF cells were cultured in 75 cm^2 cell culture flask in Dulbecco’s Modified Eagle’s Medium (DMEM) supplemented with 20% Foetal Bovine Serum (FBS), 1% non-essential amino acid (NEAA), antibiotic solution (streptomycin 100 µg/mL and penicillin 100 U/mL, Sigma Aldrich) and 2 mM L-glutamine. MCF7 cells were grown in DMEM with 10% FBS and the same antibiotics as mentioned above. The cells were maintained in a culture at 37 °C, with 5% CO2 and 95% humidity to achieve a confluent layer. Control cells were cultured in a complete medium without any compounds in tissue culture plates. Before biological testing, the samples were sterilised using a UV light for 2 h.
(§8) A direct cytotoxicity test was used to assess the in vitro cytotoxicity of IL powders. IL powders with different alkyl chains were dissolved in DMEM media to obtain solutions at various concentrations (0.5–1–5 and 10 µg/mL) to determine the best formulation.
(§9) After 24 h of incubation of IL solutions (200 µL) with seeded cells under specific environmental conditions (T = 37 °C, HR = 95%, CO2 = 5%), cell viability was tested using the Alamar blue assay (AbD Serotec, Milan, Italy) following the manufacturer’s instructions.
(§10) In summary, each well received a 200 µL aliquot of Alamar Blue^TM diluted 1:10 in phenol red-free medium and was incubated for 4 h at 37 °C, 5% CO2. Following this, 100 µL of the solution was transferred to a 96-well plate for colorimetric analysis. Wells with no cells were included to account for any background interference from the redox indicator. Optical density was immediately measured using a spectrophotometer (Victor X3, Perkin Elmer, Waltham, MA, USA) at 560 and 595 nm wavelengths. The results were presented as a percentage of cell viability compared to that of the control (cells grown on tissue culture plates).
(§11) Here, the antitumor activity and cytotoxicity of the synthetised imidazolium-based ionic liquids have been determined for breast cancer cells (MCF-7) and healthy human fibroblast (HDF) cells. […] Table 5 reports the IC50 values in µg/mL and µM to make their comparison with the literature data easy.

HDF cells = assay: as above; assay type: cell-based, human; settings: 24 h of incubation
Method: as §7, §8, §9, §10, §11

[1] = NI = no inhibition at IL maximum concentration used (1000 µM), read-out: MBC
[2] = NI = no inhibition at IL maximum concentration used (1000 µM), read-out: MIC

MIC (Pseudomonas fluorescens; 10^6 CFU/mL) [µg/mL]	MIC (Escherichia coli; 10^6 CFU/mL) [µg/mL]	MIC (Escherichia coli; [2]) [µM]	MIC (Listeria monocytogenes; 10^6 CFU/mL) [µg/mL]	MIC (Listeria monocytogenes; [2]) [µM]	Structure (SMILES)	MBC (Pseudomonas fluorescens; 10^6 CFU/mL) [µg/mL]	MBC (Pseudomonas fluorescens; [1]) [µM]	MIC (Pseudomonas fluorescens; [2]) [µM]	MBC (Escherichia coli; 10^6 CFU/mL) [µg/mL]	MBC (Escherichia coli; [1]) [µM]	MBC (Listeria monocytogenes; 10^6 CFU/mL) [µg/mL]	MBC (Listeria monocytogenes; [1]) [µM]	IC50 MCF7 (MCF7 cancer cells; n = 3) [µg/mL]	IC50 (MCF7 cancer cells; n = 3, mean ± SD) [µM]	IC50 (HDF cells; n = 3) [µM]	IC50 HDF (HDF cells; n = 3, mean ± SD) [µg/mL]	MBC (Escherichia coli; 10^6 CFU/mL, read-out: MBC) [µg/mL]	MIC (Escherichia coli; 10^6 CFU/mL, read-out: MIC) [µg/mL]	IC50 (MCF7 cancer cells; Homo sapiens, n = 3) [µg/mL]	IC50 (MCF7 cancer cells; Homo sapiens, n = 3, mean ± SD) [µM]	further results
27.64	13.82	25	27.64	50	CCCCCCCCCCCCCC[n+]1ccn(C)c1.COC(=O)c1cc(C(=O)OC)cc(S(=O)(=O)[O-])c1 [C14mimDMSIP]	69.09	125	50	27.64	50	69.09	125	2.91	5.22	10.1	5.56 ± 0.04					
145.19	72.60	125	29.04	50	CCCCCCCCCCCCCCCC[n+]1ccn(C)c1.COC(=O)c1cc(C(=O)OC)cc(S(=O)(=O)[O-])c1 [C16mimDMSIP]	145.19	250	250	72.60	125	72.60	125	3.84	6.61	9.57	5.56 ± 0.04					
	608.83	1000	304.4	500	CCCCCCCCCCCCCCCCCC[n+]1ccn(C)c1.COC(=O)c1cc(C(=O)OC)cc(S(=O)(=O)[O-])c1 [C18mimDMSIP]				608.83	1000	304.4	500	1.96	3.22	6.59	4.01 ± 0.14					
					COc1cccc2c1C(=O)c1c(O)c3c(c(O)c1C2=O)C[C@@](O)(C(=O)CO)C[C@@H]3O[C@H]1C[C@H](N)[C@H](O)[C@H](C)O1 [Doxorubicin, reference compound]														7.2	13.2	

Structure (SMILES)	MIC (Pseudomonas fluorescens; 10^6 CFU/mL) [µg/mL]	MIC (Escherichia coli; 10^6 CFU/mL) [µg/mL]	MIC (Escherichia coli; [2]) [µM]	MIC (Listeria monocytogenes; 10^6 CFU/mL) [µg/mL]	MIC (Listeria monocytogenes; [2]) [µM]	MBC (Pseudomonas fluorescens; 10^6 CFU/mL) [µg/mL]	MBC (Pseudomonas fluorescens; [1]) [µM]	MIC (Pseudomonas fluorescens; [2]) [µM]	MBC (Escherichia coli; 10^6 CFU/mL) [µg/mL]	MBC (Escherichia coli; [1]) [µM]	MBC (Listeria monocytogenes; 10^6 CFU/mL) [µg/mL]	MBC (Listeria monocytogenes; [1]) [µM]	IC50 MCF7 (MCF7 cancer cells; n = 3) [µg/mL]	IC50 (MCF7 cancer cells; n = 3, mean ± SD) [µM]	IC50 (HDF cells; n = 3) [µM]	IC50 HDF (HDF cells; n = 3, mean ± SD) [µg/mL]	MBC (Escherichia coli; 10^6 CFU/mL, read-out: MBC) [µg/mL]	MIC (Escherichia coli; 10^6 CFU/mL, read-out: MIC) [µg/mL]	IC50 (MCF7 cancer cells; Homo sapiens, n = 3) [µg/mL]	IC50 (MCF7 cancer cells; Homo sapiens, n = 3, mean ± SD) [µM]	further results
CCCCCCCCCCCCCCCC[n+]1ccn(C)c1.F[B-](F)(F)F [C16mimBF4]			25		50		250	125		125		250					49.3	9.86	1.64	4.16	MBC (Pseudomonas fluorescens; 10^6 CFU/mL, read-out: MBC): 98.6 µg/mL; MIC (Pseudomonas fluorescens; 10^6 CFU/mL, read-out: MIC): 49.3 µg/mL; MBC (Listeria monocytogenes; 10^6 CFU/mL, read-out: MBC): 98.6 µg/mL; MIC (Listeria monocytogenes; 10^6 CFU/mL, read-out: MIC): 19.7 µg/mL; IC50 (HDF cells; Homo sapiens, n = 3): 20.9 µM; IC50 (HDF cells; Homo sapiens, n = 3, mean ± SD): 8.26 ± 0.03 µg/mL
CCCCCCCCCCCCCCCCCC[n+]1ccn(C)c1.F[B-](F)(F)F [C18mimBF4]			125		500			> 1000		250		1000					106	52.8	1.95	4.61	MBC (Listeria monocytogenes; 10^6 CFU/mL, read-out: MBC): 422 µg/mL; MIC (Listeria monocytogenes; 10^6 CFU/mL, read-out: MIC): 211 µg/mL; IC50 (HDF cells; Homo sapiens, n = 3): 10.8 µM; IC50 (HDF cells; Homo sapiens, n = 3, mean ± SD): 4.57 ± 0.06 µg/mL
